The record followed here is the supplement of paper PMC10307832.

Holding throughout (assay): relative viability (nuclei count vs DMSO), 5 days (fraction); higher = more cells survive
Compound in assay [1]: Cc1ccc2nc(NCCN)c3ncc(C)n3c2c1 + Nc1ncn([C@H]2C[C@H](O)[C@@H](CO)O2)c(=O)n1 [Decitabine] (partner 2 µM)
The essentials:
(§1)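 Lung cancer cell lines in 1536-well plates got either a single drug or a fixed anchor-drug dose together with five library-drug doses (not always all listed) in √10 steps, by pin tool, on the day after seeding. Nuclei were counted after 5 days, and relative viability is the treated-to-vehicle ratio of nuclei counts. Values are medians of duplicate plates.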

Compound in assay [2]: Cc1ccc2nc(NCCN)c3ncc(C)n3c2c1 + O=C(CCCCCCC(=O)Nc1ccccc1)NO [Vorinostat] (partner 1 µM)
The essentials: as §1

Compound in the assay “Salubrinal + Lapatinib”: O=C(/C=C/c1ccccc1)NC(NC(=S)Nc1cccc2cccnc12)C(Cl)(Cl)Cl [Salubrinal] + CS(=O)(=O)CCNCc1ccc(-c2ccc3ncnc(Nc4ccc(OCc5cccc(F)c5)c(Cl)c4)c3c2)o1 [Lapatinib] (partner 2 µM)
The essentials:
as §1

Compound in the assay “Salubrinal + Alpelisib”: O=C(/C=C/c1ccccc1)NC(NC(=S)Nc1cccc2cccnc12)C(Cl)(Cl)Cl [Salubrinal] + Cc1nc(NC(=O)N2CCC[C@H]2C(N)=O)sc1-c1ccnc(C(C)(C)C(F)(F)F)c1 [Alpelisib] (partner 2 µM)
The essentials:
as §1

NCI-H3122: the relative viability in assay [1] (first compound 0.04 µM) was found to be 0.4; in assay [1] (first compound 0.1265 µM), 0.449; in assay [1] (first compound 0.4 µM) it was 0.377; in assay [1] (first compound 1.265 µM) it was 0.541; in assay [1] (first compound 4 µM) it was 0.421; in assay [2] (first compound 0.04 µM), 1.13. The relative viability in assay [2] (first compound 0.1265 µM) is 1.28; in assay [2] (first compound 0.4 µM) it was 1.01; in assay [2] (first compound 1.265 µM), 1.05; in assay [2] (first compound 4 µM) it was 1.37; with Salubrinal + Lapatinib (first compound 0.08 µM) it was 1.12; in the assay with Salubrinal + Lapatinib (first compound 0.253 µM), 1.02. For the same cell line, the relative viability stood at 1.04 with Salubrinal + Lapatinib (first compound 0.8 µM); 1.1 with Salubrinal + Lapatinib (first compound 2.53 µM); 0.959 with Salubrinal + Lapatinib (first compound 8 µM); 0.832 with Salubrinal + Alpelisib (first compound 0.08 µM); 0.762 in the assay with Salubrinal + Alpelisib (first compound 0.253 µM); 0.874 with Salubrinal + Alpelisib (first compound 0.8 µM). Further, the relative viability is 0.795 with Salubrinal + Alpelisib (first compound 2.53 µM) and 0.793 with Salubrinal + Alpelisib (first compound 8 µM).

As to PC-3 [JPC-3], the relative viability turned out to be 0.831 in assay [1] (first compound 0.04 µM); 0.889 in assay [1] (first compound 0.1265 µM); 0.854 in assay [1] (first compound 0.4 µM); 0.846 in assay [1] (first compound 1.265 µM); 0.761 in assay [1] (first compound 4 µM); 0.825 in assay [2] (first compound 0.04 µM). Moreover, the relative viability was 0.752 in assay [2] (first compound 0.1265 µM); 0.709 in assay [2] (first compound 0.4 µM); 0.774 in assay [2] (first compound 1.265 µM); 0.734 in assay [2] (first compound 4 µM); 0.436 with Salubrinal + Lapatinib (first compound 0.08 µM); 0.423 with Salubrinal + Lapatinib (first compound 0.253 µM). The relative viability in the assay with Salubrinal + Lapatinib (first compound 0.8 µM) amounted to 0.459; with Salubrinal + Lapatinib (first compound 2.53 µM) it was 0.484; in the assay with Salubrinal + Lapatinib (first compound 8 µM), 0.472; with Salubrinal + Alpelisib (first compound 0.08 µM), 1.08; in the assay with Salubrinal + Alpelisib (first compound 0.253 µM), 0.98; in the assay with Salubrinal + Alpelisib (first compound 0.8 µM), 1.13. Moreover, the relative viability with Salubrinal + Alpelisib (first compound 2.53 µM) is 1.07; with Salubrinal + Alpelisib (first compound 8 µM), 1.03.

Regarding PC-14, the relative viability in assay [1] (first compound 0.04 µM) amounted to 0.227; in assay [1] (first compound 0.1265 µM) it was 0.237; in assay [1] (first compound 0.4 µM), 0.247; in assay [1] (first compound 1.265 µM), 0.179; in assay [1] (first compound 4 µM), 0.148; in assay [2] (first compound 0.04 µM), 0.766. Further, the relative viability in assay [2] (first compound 0.1265 µM) was determined as 0.693; in assay [2] (first compound 0.4 µM), 0.763; in assay [2] (first compound 1.265 µM), 0.718; in assay [2] (first compound 4 µM) it was 0.567; with Salubrinal + Lapatinib (first compound 0.08 µM), 0.412; with Salubrinal + Lapatinib (first compound 0.253 µM), 0.347. Besides, the relative viability is 0.331 with Salubrinal + Lapatinib (first compound 0.8 µM); 0.29 with Salubrinal + Lapatinib (first compound 2.53 µM); 0.382 with Salubrinal + Lapatinib (first compound 8 µM); 1.05 with Salubrinal + Alpelisib (first compound 0.08 µM); 0.756 with Salubrinal + Alpelisib (first compound 0.253 µM); 1.14 with Salubrinal + Alpelisib (first compound 0.8 µM). The relative viability amounted to 0.968 in the assay with Salubrinal + Alpelisib (first compound 2.53 µM) and 0.562 in the assay with Salubrinal + Alpelisib (first compound 8 µM).

For RERF-LC-KJ, the relative viability in assay [1] (first compound 0.04 µM) amounted to 0.63; in assay [1] (first compound 0.1265 µM) it was 0.709; in assay [1] (first compound 0.4 µM) it was 0.684; in assay [1] (first compound 1.265 µM) it was 0.765; in assay [1] (first compound 4 µM), 0.616; in assay [2] (first compound 0.04 µM), 0.749. In addition, the relative viability in assay [2] (first compound 0.1265 µM) worked out at 0.773; in assay [2] (first compound 0.4 µM), 0.713; in assay [2] (first compound 1.265 µM), 0.861; in assay [2] (first compound 4 µM) it was 0.712; with Salubrinal + Lapatinib (first compound 0.08 µM) it was 0.871; with Salubrinal + Lapatinib (first compound 0.253 µM), 0.75. Also, the relative viability with Salubrinal + Lapatinib (first compound 0.8 µM) came out at 0.837; in the assay with Salubrinal + Lapatinib (first compound 2.53 µM), 0.828; with Salubrinal + Lapatinib (first compound 8 µM), 0.822; in the assay with Salubrinal + Alpelisib (first compound 0.08 µM), 0.912; in the assay with Salubrinal + Alpelisib (first compound 0.253 µM), 0.824; in the assay with Salubrinal + Alpelisib (first compound 0.8 µM), 0.925. Also, the relative viability stood at 0.813 with Salubrinal + Alpelisib (first compound 2.53 µM) and 0.698 in the assay with Salubrinal + Alpelisib (first compound 8 µM).

Regarding SK-LU-1, the relative viability in assay [1] (first compound 0.04 µM) is 0.672; in assay [1] (first compound 0.1265 µM) it was 0.656; in assay [1] (first compound 0.4 µM) it was 0.744; in assay [1] (first compound 1.265 µM), 0.665; in assay [1] (first compound 4 µM) it was 0.69; in assay [2] (first compound 0.04 µM), 0.851. Besides, the relative viability in assay [2] (first compound 0.1265 µM) stood at 0.725; in assay [2] (first compound 0.4 µM), 0.784; in assay [2] (first compound 1.265 µM), 0.856; in assay [2] (first compound 4 µM), 0.734; in the assay with Salubrinal + Lapatinib (first compound 0.08 µM), 0.972; with Salubrinal + Lapatinib (first compound 0.253 µM), 0.874. The relative viability with Salubrinal + Lapatinib (first compound 0.8 µM) was 0.899; with Salubrinal + Lapatinib (first compound 2.53 µM), 0.926; with Salubrinal + Lapatinib (first compound 8 µM), 0.703; with Salubrinal + Alpelisib (first compound 0.08 µM), 1.1; in the assay with Salubrinal + Alpelisib (first compound 0.253 µM), 0.864; with Salubrinal + Alpelisib (first compound 0.8 µM), 1.35. The relative viability was 1.07 in the assay with Salubrinal + Alpelisib (first compound 2.53 µM) and 0.951 with Salubrinal + Alpelisib (first compound 8 µM).

For SK-MES-1, the relative viability in assay [1] (first compound 0.04 µM) was 0.36; in assay [1] (first compound 0.1265 µM), 0.462; in assay [1] (first compound 0.4 µM) it was 0.421; in assay [1] (first compound 1.265 µM), 0.445; in assay [1] (first compound 4 µM), 0.398; in assay [2] (first compound 0.04 µM) it was 1.19. In addition, the relative viability was 1.13 in assay [2] (first compound 0.1265 µM); 1.03 in assay [2] (first compound 0.4 µM); 1.13 in assay [2] (first compound 1.265 µM); 1.03 in assay [2] (first compound 4 µM); 0.488 with Salubrinal + Lapatinib (first compound 0.08 µM); 0.405 with Salubrinal + Lapatinib (first compound 0.253 µM). Further, the relative viability turned out to be 0.499 in the assay with Salubrinal + Lapatinib (first compound 0.8 µM); 0.42 in the assay with Salubrinal + Lapatinib (first compound 2.53 µM); 0.437 in the assay with Salubrinal + Lapatinib (first compound 8 µM); 1.01 with Salubrinal + Alpelisib (first compound 0.08 µM); 0.888 with Salubrinal + Alpelisib (first compound 0.253 µM); 1.09 with Salubrinal + Alpelisib (first compound 0.8 µM). The relative viability was 0.992 with Salubrinal + Alpelisib (first compound 2.53 µM) and 0.664 with Salubrinal + Alpelisib (first compound 8 µM).

For SW 1573, the relative viability in assay [1] (first compound 0.04 µM) worked out at 0.593; in assay [1] (first compound 0.1265 µM), 0.497; in assay [1] (first compound 0.4 µM), 0.547; in assay [1] (first compound 1.265 µM) it was 0.637; in assay [1] (first compound 4 µM), 0.37; in assay [2] (first compound 0.04 µM) it was 0.85. In addition, the relative viability in assay [2] (first compound 0.1265 µM) was 0.903; in assay [2] (first compound 0.4 µM), 0.669; in assay [2] (first compound 1.265 µM), 0.865; in assay [2] (first compound 4 µM), 0.65; with Salubrinal + Lapatinib (first compound 0.08 µM), 1.02; with Salubrinal + Lapatinib (first compound 0.253 µM), 1.14. Further, the relative viability in the assay with Salubrinal + Lapatinib (first compound 0.8 µM) was 1.09; in the assay with Salubrinal + Lapatinib (first compound 2.53 µM) it was 1.11; with Salubrinal + Lapatinib (first compound 8 µM), 1.16; with Salubrinal + Alpelisib (first compound 0.08 µM), 0.802; with Salubrinal + Alpelisib (first compound 0.253 µM), 0.909; with Salubrinal + Alpelisib (first compound 0.8 µM), 0.827. Besides, the relative viability amounted to 1.04 in the assay with Salubrinal + Alpelisib (first compound 2.53 µM) and 0.604 with Salubrinal + Alpelisib (first compound 8 µM).
